Molecular target: α-Glucosidase (EC 3.2.1.20)
Conditions: read-out: IC50 values ± SEM against α-glucosidase enzyme; pH 6.9, 37° C., 0.5 μM p-nitrophenyl α-D-glucopyranoside substrate, 250 units/mL enzyme, 50 mM sodium phosphate buffer with 100 mM NaCl
Excerpt: The increments in absorption at 400 nm due to the hydrolysis of PNP-G by α-glucosidase were monitored continuously with a molecular devices spectrophotometer.

CC(C)(O)[C@H]1CC[C@]2(C)[C@H]3CC[C@@H]4[C@@]5(C)CCCC(C)(C)[C@@H]5[C@@H](O)C[C@@]4(C)[C@]3(C)CC[C@@H]12 [Zeorin, 6,22-Hopanediol]
IC50: 100 ± 0.3 µM

Source: patent US7867989B2, “α-glucosidase inhibitors from lichens” (priority 2007, dated 2011)
